{"source": "patent US20070086949A1", "about": "“Method of bioimaging using nanocrystals of fluorescent dyes” (priority 2005, published 2007)", "key": {"[1]": {"tested_on": "human cervix carcinoma cell line Hela", "assay": "Confocal imaging of HeLa cells incubated with dye nanocrystal water dispersion", "assay_type": "cell-based", "details": "confocal microscopy", "protocol": "For cellular imaging, human cervix carcinoma cell line Hela was incubated with the prepared dye dispersion. The cell culture and imaging conditions are described in detail here. Human cervical carcinoma cell line (HeLa) was maintained in Dulbecco's modified eagle medium with 10% FBS according to the manufacturers instructions (American Type Culture Collection, Manassas, Va.). To study the uptake and imaging of HPPH nanocrystals, the cells were trypsinized and resuspended in the corresponding suitable media at a concentration of around 7.5×10^5/ml. 60 μl of this suspension was transferred to each 35 mm culture plate and 2 ml of the corresponding full medium was added. These plates were then placed in an incubator at 37° C. with 5% CO2 (VWR Scientific, model 2400). After 36 hours of incubation, the cells (about 60% confluency) were rinsed with PBS, and 2 ml of the corresponding fresh media was added to the plates. Finally, 50 μl of dye nanocrystals was added and mixed properly. Plates were returned to the incubator (37° C., 5% CO2) for the required incubation period. 50 μl of dye/Tween80 micelles of same dye concentration was used as control and separate culture plates were treated and incubated for the same time period as in the case of nanocrystals. […]"}, "[2]": {"assay": "Size of TPB and perylene nanocrystals in water dispersion", "assay_type": "physicochemical", "protocol": "Briefly, 200 μl of dye acetone solution (10 mM concentration ) was injected into magnetically stirring water (10 ml). The average size of nanoparticle was estimated to vary from 50 nm to 200 nm depending on the concentration of original organic solution and water temperature. A homogenous dispersion of the dye nanocrystals without any noticeable aggregation or clumps was produced. Optical properties of the prepared nanocrystals were studied using UV-Visible and fluorescence spectroscopy. UV-visible absorption spectra as well as the fluorescence spectra of the nanocrystals were acquired using a Shimadzu 3600 UV spectrometer and a Jobin-Yvon Spectramax fluorimeter. Changes in absorption spectra as well as fluorescence intensity changes (such as quenching) were studied by comparing the spectra of nanocrystals in water with that of organic solution.\nFor this experiment, perylene was dissolved on DMSO at 1 mM, 10 mM or 100 mM. The nanocrystals were prepared as described in Example 1 by adding to water at 4° C. or 80° C."}}, "data": [{"smiles": "c1cc2cccc3c4cccc5cccc(c(c1)c23)c54", "note": "[perylene]", "values": [{"measurement": "intracellular staining pattern", "setting": "[1]", "value": "staining the entire cytoplasm with higher dye accumulation in vescicular bodies such as lysosomes"}, {"measurement": "size of the nanocrystals versus concentration of the dye", "setting": "[2]; perylene in DMSO at 1 mM, 10 mM or 100 mM, added to water at 4° C. or 80° C.", "value": "increase with increasing concentration"}, {"measurement": "size of the nanocrystals versus water temperature", "setting": "[2]; water at 4° C. or 80° C.", "value": "greater at the higher water temperature"}]}]}
